The values that follow come from patent US20210180013A1, “IMPROVED METHODS FOR INDUCING TISSUE REGENERATION AND SENOLYSIS IN MAMMALIAN CELLS” (AgeX Therapeutics, Inc., priority 2018, published 2021).

“And” between values parts separate entries of the source, which are not always exact repeats. Equal values may be shown once.

For assay [1], the system named is 4D20.8 and MSCs. Briefly: TUNEL apoptosis assay, embryonic vs adult mesenchymal cells. In kind it is cell-based, human. The settings on record: 3.7 nM; 24 hours; 4D20.8 vs MSC; FIG. 7. As for the experimental part:
(§1) Optimized conditions were identified for distinguishing the increased apoptosis anticipated by cells with a pre-fetal pattern of gene expression. Embryonic and adult-derived mesenchymal (4D20.8 and MSCs respectively) and vascular endothelial cells (30MV2-6 and HAEC respectively) were treated with diverse stimuli for apoptosis including: Camptothecin (CPT), H2O2, and Thapsigargin (TG) at two concentrations each as well as a vehicle control. The compounds were applied for 24 hours prior to analysis. After treatment apoptosis was monitored via TUNEL staining using the In Situ Cell Death Detection kit (Roche, cat #12156792910) following the manufacturer's instructions. […] This assay is therefore useful in determining the effectiveness of iTR factors in inducing senolysis in aged cells and in CSCs.

For assay [2], the system named is 30MV2-6 and HAEC. Briefly: TUNEL apoptosis assay, embryonic vs adult vascular endothelial cells. Format: cell-based, human. The settings on record: 3.7 nM; 24 hours; 30MV2-6 vs HAEC; FIG. 7. The protocol: as §1
The subject of assay [3] is Xgene fibroblasts (human foreskin). The experiment in a line: Cell number of early and late passage fibroblasts (senolytic activity). The settings on record: for cell number, Avg / cell number, single wells: 20,000 cells/well seeded; for cell number, Avg / cell number, single wells / cell number compared to controls, in words: 1 week; for Fold change of cell number: relative to control (growth medium alone). Format: cell-based. The protocol: Xgene fibroblasts (human foreskin, obtained from Xgene, Sausilito Calif.) were seeded at early (P9) and late (P33) passage at 20,000 cells/well (0.1% gelatin coated 24 well plate) in growth medium (DMEM+10% FBS). The following day they were refed medium with the additive listed below for 1 week and fed every other day and then counted.

Assay [4] concerns COX7A1. The experiment in a line: qPCR of COX7A1 after valproic acid treatment. The settings on record: 28 days, adult derived dermal fibroblasts. Format: cell-based. The protocol:
Adult derived dermal fibroblasts were cultured in DMEM 10% FBS in wells of 6 well plates and treated with valproic acid at 0.5 mM and 1 mM for 28 days. On day 28 the media was removed, the cells were washed with PBS, and then lysed using RLT with beta-mercaptoethanol (Qiagen Cat 79216). Total RNA was extracted using Qiagen RNeasy mini-kits (Qiagen Cat 74106) following manufacturers instructions. Then cDNA was prepared using ThermoFisher superscript III (Cat. 18080044). qPCR was run on an Applied Biosystems 7500 Real-Time PCR System employing SDSv2.3 software to evaluate the expression of COX7A1 (which is a definitive indicator of adult phenotype) relative to GAPDH of the treated line relative to the untreated line.
On the technique in general: In qPCR the cycle at which signal appears reflects the starting amount.

For assay [5], the system named is BJ-TERT fibroblast cells. The experiment in a line: Scratch assay of tissue regeneration and cell proliferation. Format: cell-based. The settings on record: 2 weeks treatment; 800 um scratch; % filling 16 hours later. As for the experimental part:
BJ-TERT fibroblast cells at passage 8 were seeded at 50,000 cells/well on 6 well plates in DMEM 10% FBS. The following day the cells were treated with various cocktails listed below for 2 weeks:
Following treatment, at confluence an 800 um scratch was made and % filling evaluated 16 hours later. Filling of scratch of treated cells were compared to that of control.

Consider `C/C=C(/C)C(=O)O[C@H]1C(C)=C2[C@H]([C@@H]1OC(=O)CCCCCCC)[C@@](C)(OC(C)=O)C[C@H](OC(=O)CCC)[C@@]1(O)[C@H]2OC(=O)[C@@]1(C)O` [Thapsigargin], for which, in assay [1], the “apoptosis (TUNEL), embryonic mesenchymal cells compared to adult counterparts” value is given as “robust statistically-significant increase in apoptosis”. In addition, the “apoptosis (TUNEL), embryonic endothelial cells compared to adult counterparts” value in assay [2] is given as “robust statistically-significant increase in apoptosis”.

Take `CCCC(CCC)C(=O)O` [valproic acid]: the “cell number, Avg” value is 226,000 in assay [3] (early passage P9) and 67,000 in assay [3] (late passage P33). Besides, the “cell number, single wells” value is 228,000 and 224,000 in assay [3] (early passage P9, listed as Cond. B); 62,000 and 72,000 in assay [3] (late passage P33, listed as Cond. B). In addition, the “Fold change of cell number” value was found to be 1.2 in assay [3] (early passage P9) and 1.0 in assay [3] (late passage P33). In addition, the “cell number compared to controls, in words” value in assay [3] (late passage (P33)) is “differential effect on late passage cells”. The “COX7A1 expression (normalized to GAPDH) compared to control (untreated)” value in assay [4] (0.5 mM) is given as “negligible effect”; in assay [4] (1 mM), 0.001. In assay [5], the “Fold Increase Over Control (filling of scratch)” value is given as 1.4.

B1: A: LIN28A-11R (LD Biopharma HTF 0046) 4 ug/ml (protein, UniProt Q9H9Z2 2-209, looked up)
Protein lin-28 homolog A: GSVSNQQFAGGCAKAAEEAPEEAPEDAARAADEPQLLHGAGICKWFNVRMGFGFLSMTARAGVALDPPVDVFVHQSKLHMEGFRSLKEGEAVEFTFKKSAKGLESIRVTGPGGVFCIGSERRPKGKSMQKRRSKGDRCYNCGGLDHHAKECKLPPQPKKCHFCQSISHMVASCPLKAQQGPSAQGKPTYFREEEEEIHSPTLLPEAQN
modifications: C-terminal 11-arginine cell-penetrating tag
notes: LIN28A-11R (LD Biopharma HTF 0046) 4 ug/ml
Take B1: the “cell number compared to controls, in words” value in assay [3] (early passage (P9)) is reported as “heightened cell number”; in assay [3] (late passage (P33)) it was “differential effect on late passage cells”; in assay [3] (late passage (P33), listed as condition A), “reduced cell number”. The “cell number, Avg” value in assay [3] (early passage P9) is 254,000; in assay [3] (late passage P33), 48,000. Also, the “cell number, single wells” value was 220,000 and 288,000 in assay [3] (early passage P9, listed as Cond A); 46,000 and 50,000 in assay [3] (late passage P33, listed as Cond A). In addition, the entries for the “Fold change of cell number” value in assay [3] (early passage P9) and in assay [3] (late passage P33) were 1.3 and 0.8, respectively. The “Fold Increase Over Control (filling of scratch)” value in assay [5] amounted to 1.2.
